Assay in all cases: relative viability (nuclei count vs DMSO), 5 days (fraction); higher = more cells survive
Compound in the test “Alpelisib + Navitoclax”: Cc1nc(NC(=O)N2CCC[C@H]2C(N)=O)sc1-c1ccnc(C(C)(C)C(F)(F)F)c1 [Alpelisib] + CC1(C)CCC(c2ccc(Cl)cc2)=C(CN2CCN(c3ccc(C(=O)NS(=O)(=O)c4ccc(N[C@H](CCN5CCOCC5)CSc5ccccc5)c(S(=O)(=O)C(F)(F)F)c4)cc3)CC2)C1 [Navitoclax] (partner 0.5 µM)
The method in brief: (§1)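 Lung cancer cell lines were pin-tool dosed in 1536-well plates on the day after seeding, with either a lone drug or a fixed anchor-drug dose plus five library-drug doses (not always all listed) in √10 steps. Nuclei were counted on 4× images after 5 days. Relative viability is the ratio of treated-well to vehicle-well nuclei counts, with each value a median of duplicate plates.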

Compound in the test “OSI-027 + Pictilisib”: COc1cccc2cc(-c3nc([C@H]4CC[C@H](C(=O)O)CC4)n4ncnc(N)c34)[nH]c12 [OSI-027] + CS(=O)(=O)N1CCN(Cc2cc3nc(-c4cccc5[nH]ncc45)nc(N4CCOCC4)c3s2)CC1 [Pictilisib] (partner 1 µM)
The method in brief:
as §1

Compound in the test “Vemurafenib + Decitabine”: CCCS(=O)(=O)Nc1ccc(F)c(C(=O)c2c[nH]c3ncc(-c4ccc(Cl)cc4)cc23)c1F [Vemurafenib] + Nc1ncn([C@H]2C[C@H](O)[C@@H](CO)O2)c(=O)n1 [Decitabine] (partner 2 µM)
The method in brief:
as §1

Compound in the test “Vemurafenib + Navitoclax”: CCCS(=O)(=O)Nc1ccc(F)c(C(=O)c2c[nH]c3ncc(-c4ccc(Cl)cc4)cc23)c1F [Vemurafenib] + CC1(C)CCC(c2ccc(Cl)cc2)=C(CN2CCN(c3ccc(C(=O)NS(=O)(=O)c4ccc(N[C@H](CCN5CCOCC5)CSc5ccccc5)c(S(=O)(=O)C(F)(F)F)c4)cc3)CC2)C1 [Navitoclax] (partner 0.5 µM)
The method, boiled down: as §1

For PC-3 [JPC-3], the relative viability in the test with Alpelisib + Navitoclax (first compound 0.04 µM) worked out at 0.828; in the test with Alpelisib + Navitoclax (first compound 0.1265 µM), 0.836; with Alpelisib + Navitoclax (first compound 0.4 µM), 0.848; with Alpelisib + Navitoclax (first compound 1.265 µM), 0.73; in the test with Alpelisib + Navitoclax (first compound 4 µM) it was 0.762; with OSI-027 + Pictilisib (first compound 0.01 µM), 0.68. Moreover, the relative viability in the test with OSI-027 + Pictilisib (first compound 0.03162 µM) turned out to be 0.675; in the test with OSI-027 + Pictilisib (first compound 0.1 µM), 0.697; with OSI-027 + Pictilisib (first compound 0.3162 µM), 0.62; in the test with OSI-027 + Pictilisib (first compound 1 µM) it was 0.521; in the test with Vemurafenib + Decitabine (first compound 0.3162 µM), 0.81; with Vemurafenib + Decitabine (first compound 1 µM) it was 0.888. Further, the results for the relative viability in the test with Vemurafenib + Navitoclax (first compound 0.03162 µM), in the test with Vemurafenib + Navitoclax (first compound 0.3162 µM) and with Vemurafenib + Navitoclax (first compound 1 µM) were 0.728, 0.936 and 0.788, respectively.

On to PC-14, for which the relative viability with Alpelisib + Navitoclax (first compound 0.04 µM) came to 0.984; with Alpelisib + Navitoclax (first compound 0.1265 µM), 1.08; with Alpelisib + Navitoclax (first compound 0.4 µM), 1.16; with Alpelisib + Navitoclax (first compound 1.265 µM) it was 0.913; in the test with Alpelisib + Navitoclax (first compound 4 µM), 0.945; in the test with OSI-027 + Pictilisib (first compound 0.01 µM), 0.526. Moreover, the relative viability was determined as 0.719 with OSI-027 + Pictilisib (first compound 0.03162 µM); 0.722 with OSI-027 + Pictilisib (first compound 0.1 µM); 0.544 with OSI-027 + Pictilisib (first compound 0.3162 µM); 0.171 in the test with OSI-027 + Pictilisib (first compound 1 µM); 0.223 with Vemurafenib + Decitabine (first compound 0.03162 µM); 0.181 with Vemurafenib + Decitabine (first compound 0.3162 µM). Moreover, the relative viability with Vemurafenib + Decitabine (first compound 1 µM) turned out to be 0.237; with Vemurafenib + Navitoclax (first compound 0.03162 µM), 0.915; with Vemurafenib + Navitoclax (first compound 0.3162 µM), 0.977; with Vemurafenib + Navitoclax (first compound 1 µM) it was 0.937.

Regarding RERF-LC-KJ, the relative viability with Alpelisib + Navitoclax (first compound 0.04 µM) was determined as 0.768; with Alpelisib + Navitoclax (first compound 0.1265 µM) it was 0.931; with Alpelisib + Navitoclax (first compound 0.4 µM), 0.935; in the test with Alpelisib + Navitoclax (first compound 1.265 µM) it was 0.626; with Alpelisib + Navitoclax (first compound 4 µM), 0.741; with OSI-027 + Pictilisib (first compound 0.01 µM) it was 0.508. For the same cell line, the relative viability with OSI-027 + Pictilisib (first compound 0.03162 µM) amounted to 0.542; with OSI-027 + Pictilisib (first compound 0.1 µM) it was 0.492; with OSI-027 + Pictilisib (first compound 0.3162 µM), 0.393; in the test with OSI-027 + Pictilisib (first compound 1 µM), 0.344; with Vemurafenib + Decitabine (first compound 0.03162 µM), 0.639; in the test with Vemurafenib + Decitabine (first compound 0.1 µM) it was 0.678. Moreover, the relative viability with Vemurafenib + Decitabine (first compound 0.3162 µM) was 0.632; with Vemurafenib + Decitabine (first compound 1 µM), 0.716; with Vemurafenib + Navitoclax (first compound 0.03162 µM), 1.05; with Vemurafenib + Navitoclax (first compound 0.1 µM) it was 1.04; in the test with Vemurafenib + Navitoclax (first compound 0.3162 µM), 0.977; with Vemurafenib + Navitoclax (first compound 1 µM) it was 1.29.

SK-LU-1: the relative viability with Alpelisib + Navitoclax (first compound 0.04 µM) amounted to 0.781; in the test with Alpelisib + Navitoclax (first compound 0.1265 µM) it was 0.788; with Alpelisib + Navitoclax (first compound 0.4 µM), 0.845; with Alpelisib + Navitoclax (first compound 1.265 µM), 0.814; in the test with Alpelisib + Navitoclax (first compound 4 µM), 0.654; in the test with OSI-027 + Pictilisib (first compound 0.01 µM), 0.529. The relative viability is 0.462 in the test with OSI-027 + Pictilisib (first compound 0.03162 µM); 0.355 in the test with OSI-027 + Pictilisib (first compound 0.1 µM); 0.272 with OSI-027 + Pictilisib (first compound 0.3162 µM); 0.287 in the test with OSI-027 + Pictilisib (first compound 1 µM); 0.638 in the test with Vemurafenib + Decitabine (first compound 0.03162 µM); 0.588 with Vemurafenib + Decitabine (first compound 0.1 µM). For the same cell line, the relative viability worked out at 0.504 in the test with Vemurafenib + Decitabine (first compound 0.3162 µM); 0.56 with Vemurafenib + Decitabine (first compound 1 µM); 0.914 with Vemurafenib + Navitoclax (first compound 0.03162 µM); 0.74 with Vemurafenib + Navitoclax (first compound 0.1 µM); 0.751 with Vemurafenib + Navitoclax (first compound 0.3162 µM); 0.564 with Vemurafenib + Navitoclax (first compound 1 µM).

Take SK-MES-1: the relative viability with Alpelisib + Navitoclax (first compound 0.04 µM) came out at 1.16; in the test with Alpelisib + Navitoclax (first compound 0.1265 µM) it was 1.25; in the test with Alpelisib + Navitoclax (first compound 0.4 µM), 1.29; in the test with Alpelisib + Navitoclax (first compound 1.265 µM), 1.02; in the test with Alpelisib + Navitoclax (first compound 4 µM), 0.793; with OSI-027 + Pictilisib (first compound 0.01 µM), 0.323. Also, the relative viability in the test with OSI-027 + Pictilisib (first compound 0.03162 µM) was 0.362; in the test with OSI-027 + Pictilisib (first compound 0.1 µM) it was 0.333; with OSI-027 + Pictilisib (first compound 0.3162 µM), 0.278; with OSI-027 + Pictilisib (first compound 1 µM), 0.252; with Vemurafenib + Decitabine (first compound 0.03162 µM), 0.384; in the test with Vemurafenib + Decitabine (first compound 0.1 µM), 0.334. For the same cell line, the relative viability amounted to 0.38 with Vemurafenib + Decitabine (first compound 0.3162 µM); 0.386 in the test with Vemurafenib + Decitabine (first compound 1 µM); 1.25 in the test with Vemurafenib + Navitoclax (first compound 0.03162 µM); 1.3 with Vemurafenib + Navitoclax (first compound 0.1 µM); 1.27 in the test with Vemurafenib + Navitoclax (first compound 0.3162 µM); 1.13 with Vemurafenib + Navitoclax (first compound 1 µM).

On to SW 1573, for which the relative viability with Alpelisib + Navitoclax (first compound 0.04 µM) worked out at 0.903; with Alpelisib + Navitoclax (first compound 0.1265 µM), 0.879; with Alpelisib + Navitoclax (first compound 0.4 µM), 1.03; with Alpelisib + Navitoclax (first compound 1.265 µM), 0.768; in the test with Alpelisib + Navitoclax (first compound 4 µM), 0.585; with OSI-027 + Pictilisib (first compound 0.01 µM) it was 0.466. Moreover, the relative viability with OSI-027 + Pictilisib (first compound 0.03162 µM) amounted to 0.436; with OSI-027 + Pictilisib (first compound 0.1 µM), 0.458; in the test with OSI-027 + Pictilisib (first compound 0.3162 µM) it was 0.357; with OSI-027 + Pictilisib (first compound 1 µM) it was 0.205; with Vemurafenib + Decitabine (first compound 0.03162 µM) it was 0.386; in the test with Vemurafenib + Decitabine (first compound 0.1 µM), 0.442. Further, the relative viability came out at 0.484 in the test with Vemurafenib + Decitabine (first compound 0.3162 µM); 0.452 with Vemurafenib + Decitabine (first compound 1 µM); 0.927 with Vemurafenib + Navitoclax (first compound 0.03162 µM); 1.12 in the test with Vemurafenib + Navitoclax (first compound 0.1 µM); 1.09 with Vemurafenib + Navitoclax (first compound 0.3162 µM); 0.934 in the test with Vemurafenib + Navitoclax (first compound 1 µM).

Source of the values: the supplement of paper PMC10307832.
